Assay results as given in patent US20060241174A1, “Vitamin E tocotrienols inhibition of intracellularly obligate pathogen Chlamydia and methods of use” (priority 2005, published 2006).

How the values were obtained:
C. trachomatis SVK = experiment: Flow cytometry on Chlamydia-infected human B-lymphocytes (JY) treated with delta tocotrienol; assay type: cell-based, Chlamydia trachomatis
Protocol: FIG. 5 illustrates flow cytometry on Chlamydia-infected human B-lymphocytes treated with delta tocotrienol. Human B-lymphocyte (JY) cells were treated with a 30 μmol/L concentration of delta tocotrienol in culture for 4 hours, infected with C. trachomatis SVK for 24-72 hours. Immunofluorescent Chlamydia-positive cells were detected by flow cytometry.
Chlamydial Strains: Stocks of C. trachomatis serovar K/VR887 were grown in J774A.1 cells without centrifuge assistance. Infected cells were lysed, this stock aliquoted and frozen down in SPG freeze medium (75.0 g sucrose, 0.52 g potassium phosphate, 1.22 g sodium phosphate dibasic, 0.72 g glutamic acid, diluted in […] ddH2O). These aliquots were stored in liquid N2 or at −80° C., and later thawed for use to infect monolayers.
Cell Lines Used: Mouse macrophages (J774A.1), human mammary tumor cells (MCF-7), and human epithelial cells (Hep-2), were obtained from the American Type Culture collection. Human mammary tumor cells (TMX2-28) were a kind gift from Dr. Arcaro, and human B-lymphocytes (JY) were a kind gift from Dr. Eric Martz. All cell lines were maintained in Richter's improved MEM insulin (IMEMZO, Irvine Scientific, Santa Ana, Calif.) with 5% fetal bovine serum (FBS, Atlanta Biologicals, Norcross, Ga.). Cells were grown to 80% confluence on 12 mm coverslips in 12 well plates (Becton Dickinson Labware, Franklin Lakes, N.J.). A dilution of 1:125 or 1:200 of the C. trachomatis serovar K stock was made using the standard complete cycloheximide overlay media (Bio-Whittaker, Walkersville, Md.) containing 10% FBS, and 1× L-glutamine (CCOM). This was layered onto the coverslip containing monolayers, and incubated for 24-48 hours at 37° C. with 5% CO2. Coverslips with the cell monolayers were harvested, rinsed with phosphate buffered saline (PBS), fixed with 70% cold methanol, stored and subsequently immunostained. […]
Immunostaining: Briefly, infected cells were immunostained with a 1:2 dilution of guinea pig anti-chlamydia polyclonal antibody (Biomeda, Foster City, Calif.), or a 1:125 dilution of rabbit anti-chlamydia EB whole serum for 1 hour at 37° C. Following PBS rinses X3, the bound antibodies were detected using a 1:100 dilution of FITC-conjugated donkey anti-guinea pig or a 1:125 dilution of TRITC-conjugated goat anti-rabbit secondary antibodies (Jackson ImmunoResearch, West Grove, Pa.). […] For photography, slides were assessed in the Massachusetts Central Microscopy Facility using a Zeiss LSM 510 Meta Confocal System and 630× magnification. […]
Samples were analyzed for carriage of Chlamydia-infected cells by FACScan (Becton, Dickinson and Company, Franklin Lakes, N.J.).

Chlamydia = experiment: Chlamydia-infected human mammary tumor cells (TMX2-28) treated with delta tocotrienol; assay type: cell-based
Protocol: FIG. 7 illustrates Chlamydia-infected human mammary tumor cells treated with delta tocotrienol (630× magnification). Human mammary tumor cells (TMX2-28) were infected with Chlamydia for 72 hours and treated with a 15 μmol/L concentration of delta tocotrienol (FIG. 7A). Controls were left untreated (FIG. 7B).

LDL = LDL levels in hyperlipidemic patients before and after delta-tocotrienol supplementation; assay type: in vivo, human
Protocol: In a clinical study, buffy coats from blood samples drawn both before and after delta-tocotrienol supplementation were immunostained for detection of Chlamydia-infected cells. The samples were tested for LDL levels both before and after delta-tocotrienol supplementation.

delta tocotrienol
maximum chlamydial inhibition in JY cells (C. trachomatis SVK; at 36 hours, 30 μmol/L, flow cytometry): 2.6 fold | persistence of effect (C. trachomatis SVK; following one single tocotrienol treatment): at least 3 days | period in which chlamydial inhibition was effective (C. trachomatis SVK; one single tocotrienol treatment): ≤ 1 days | chlamydial inhibition in JY cells (C. trachomatis SVK; over an infection period of 72 hours, 30 μmol/L, flow cytometry): at least 2 fold | apoptosis of Chlamydia-infected, tocotrienol-treated cancer cells (Chlamydia): did not appear to become apoptotic | inclusion size in tocotrienol treated mammary tumor cells (Chlamydia; 15 μmol/L, infected 72 hours, untreated >20 μm): 10-15 μm | % Decrease in LDL (LDL; Patient 1 (Chlamydia negative before supplementation)): 20% | % Decrease in LDL (LDL; Patient 2 (Chlamydia positive before supplementation)): 7% | % Decrease in LDL (LDL; Patient 3 (Chlamydia strong positive before supplementation)): 25% | cell number compared to cells grown in culture medium (Cells in culture): no difference in cell number
